Experiments:
[1] = SPR reference surface (nonfunctionalized dextran); type: binding; conditions: pH 7.5, raw SPR data
Protocol: (§1) Two commercially available functionalized phenylboronic acids (Frontier Scientific, Logan Utah) were screened to compare the effect of electron withdrawing substituents (2,5-difluorophenylboronic acid, 1, FIG. 3a), versus a ortho-hydroxymethyl substituent (2-hydroxymethylphenylboronic acid, 2, FIG. 3a) prepared at 50 mM concentrations in 25 mM buffers at the appropriate pH (pH 5.5 acetate buffer, pH 7.5 phosphate buffer, and pH 9.5 carbonate buffer). HIV-1 CN54 gp120 with a molecular weight of 130 kDa was obtained from the NIH AIDS Research and Reference Reagent Program (Division of AIDS, NIH). CN54 gp120 was attached to a CM4 sensor chip using standard amine coupling chemistry with a density of 10,000 RU. Briefly, using HBS-P as the running buffer, the carboxymethyl dextran surface of a surface Plasmon resonance (SPR) chip (CM4 chip, Biacore) was activated with an injection of a 1:1 ratio of 0.4M 1-ethyl-3-(3-dimethylaminopropyl)carbodiimide hydrochloride (EDC)/0.1M N-hydroxysuccinimide (NHS). CN54 gp120 in 10 mM sodium acetate (pH 5.5) was then coupled to the surface. The remaining activated groups were then blocked by an injection of 1M ethanolamine (pH 8.5).

HIV-1 CN54 gp120 = assay: Surface plasmon resonance screening of phenylboronic acid ligands with HIV gp120; type: binding; conditions: SPR, 25° C., 1:1 interaction model, pH 5.5 / 7.5 / 9.5 buffers
Protocol: Two commercially available functionalized phenylboronic acids (Frontier Scientific, Logan Utah) were screened to compare the effect of electron withdrawing substituents (2,5-difluorophenylboronic acid, 1, FIG. 3a), versus a ortho-hydroxymethyl substituent (2-hydroxymethylphenylboronic acid, 2, FIG. 3a) prepared at 50 mM concentrations in 25 mM buffers at the appropriate pH (pH 5.5 acetate buffer, pH 7.5 phosphate buffer, and pH 9.5 carbonate buffer). HIV-1 CN54 gp120 with a molecular weight of 130 kDa was obtained from the NIH AIDS Research and Reference Reagent Program (Division of AIDS, NIH). CN54 gp120 was attached to a CM4 sensor chip using standard amine coupling chemistry with a density of 10,000 RU. […] Affinity for the gp120 functionalized surface was determined by comparing raw data to three reference cells: two of the unactivated CM4 surfaces, and an activated CM4 surface capped completely by ethanolamine. […] The association and dissociation phases were monitored for 1-3 min and 3-10 min respectively. Data was fitted to a 1:1 interaction model and the apparent affinity, KD, was determined using Scrubber II software. […]
Binding affinities in the presence of the seminal component fructose were also analyzed. […]

[2] = Solubility of ligand in buffer for SPR; type: physicochemical; conditions: pH 5.5
Protocol: as §1

SMILES | binding to nonfunctionalized dextran surface [1] | apparent affinity, KD, to gp120 functionalized surface (HIV-1 CN54 gp120) | solubility [2]
OB(O)c1cc(F)ccc1F [compound 1, 2,5-difluorophenylboronic acid] | no binding | – | –
OCc1ccccc1B(O)O [compound 2, 2-hydroxymethylphenylboronic acid] | – | slightly higher affinity compared to the more acidic 1 | not soluble

Reference: patent US20130164249A1, “COMPOSITIONS AND METHODS FOR INHIBITING VIRAL AND BACTERIAL ACTIVITY” (priority 2007, published 2013)
